Test results reported in US10577369B2, “Substituted quinazolinones for inhibiting PI3K” (priority 2016, dated 2020).
Where two headings read alike, the source gives them in different places.

Tests used:
PI3K p110α = target: T1, PI3K p110α (Homo sapiens, UniProt P42336); experiment: PI3K kinase activity test (Adapta kinase assay), p110α; format: biochemical
T1 construct: purchased Thermo Fisher Scientific Inc. (SelectScreen Services)
Method: (§1) An experiment was conducted using a homogeneous, fluorescence-based immunoassay, which is Adapta kinase assay. SelectScreen™ Services available from Thermo Fisher Scientific Inc. was carried out.

PI3K p110β = target: T2, PI3K p110β (Homo sapiens, UniProt P42338); experiment: PI3K kinase activity test (Adapta kinase assay), p110β; format: biochemical
T2 construct: purchased Thermo Fisher Scientific Inc. (SelectScreen Services)
T2 sequence (P42338 whole entry): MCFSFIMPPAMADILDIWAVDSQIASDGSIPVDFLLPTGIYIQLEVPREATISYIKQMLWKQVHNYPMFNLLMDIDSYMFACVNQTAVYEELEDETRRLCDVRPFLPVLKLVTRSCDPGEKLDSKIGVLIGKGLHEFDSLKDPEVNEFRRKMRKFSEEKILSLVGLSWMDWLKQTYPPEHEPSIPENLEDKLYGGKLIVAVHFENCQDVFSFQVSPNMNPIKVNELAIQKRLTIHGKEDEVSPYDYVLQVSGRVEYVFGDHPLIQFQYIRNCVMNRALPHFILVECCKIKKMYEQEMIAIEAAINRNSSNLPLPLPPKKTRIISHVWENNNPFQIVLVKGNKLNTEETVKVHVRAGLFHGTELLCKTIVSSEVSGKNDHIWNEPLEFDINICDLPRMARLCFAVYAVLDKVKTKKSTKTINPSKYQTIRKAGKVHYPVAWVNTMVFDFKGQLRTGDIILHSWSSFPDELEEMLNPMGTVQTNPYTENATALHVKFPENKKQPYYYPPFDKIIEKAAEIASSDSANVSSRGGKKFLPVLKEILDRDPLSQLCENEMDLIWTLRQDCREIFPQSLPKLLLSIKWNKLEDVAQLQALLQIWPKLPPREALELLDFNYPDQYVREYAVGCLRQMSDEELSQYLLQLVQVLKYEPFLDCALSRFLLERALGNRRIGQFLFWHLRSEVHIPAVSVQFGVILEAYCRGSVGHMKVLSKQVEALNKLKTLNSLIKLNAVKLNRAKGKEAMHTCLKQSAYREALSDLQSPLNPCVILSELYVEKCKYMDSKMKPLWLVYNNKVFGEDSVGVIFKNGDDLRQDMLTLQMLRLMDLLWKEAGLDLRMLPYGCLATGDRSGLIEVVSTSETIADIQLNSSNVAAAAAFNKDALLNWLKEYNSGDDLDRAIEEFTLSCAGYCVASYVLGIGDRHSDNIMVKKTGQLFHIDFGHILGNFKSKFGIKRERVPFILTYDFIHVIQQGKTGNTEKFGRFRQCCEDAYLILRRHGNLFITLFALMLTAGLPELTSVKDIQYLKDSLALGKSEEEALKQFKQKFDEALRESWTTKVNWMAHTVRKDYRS
T2 sequence (P27986 whole entry partner): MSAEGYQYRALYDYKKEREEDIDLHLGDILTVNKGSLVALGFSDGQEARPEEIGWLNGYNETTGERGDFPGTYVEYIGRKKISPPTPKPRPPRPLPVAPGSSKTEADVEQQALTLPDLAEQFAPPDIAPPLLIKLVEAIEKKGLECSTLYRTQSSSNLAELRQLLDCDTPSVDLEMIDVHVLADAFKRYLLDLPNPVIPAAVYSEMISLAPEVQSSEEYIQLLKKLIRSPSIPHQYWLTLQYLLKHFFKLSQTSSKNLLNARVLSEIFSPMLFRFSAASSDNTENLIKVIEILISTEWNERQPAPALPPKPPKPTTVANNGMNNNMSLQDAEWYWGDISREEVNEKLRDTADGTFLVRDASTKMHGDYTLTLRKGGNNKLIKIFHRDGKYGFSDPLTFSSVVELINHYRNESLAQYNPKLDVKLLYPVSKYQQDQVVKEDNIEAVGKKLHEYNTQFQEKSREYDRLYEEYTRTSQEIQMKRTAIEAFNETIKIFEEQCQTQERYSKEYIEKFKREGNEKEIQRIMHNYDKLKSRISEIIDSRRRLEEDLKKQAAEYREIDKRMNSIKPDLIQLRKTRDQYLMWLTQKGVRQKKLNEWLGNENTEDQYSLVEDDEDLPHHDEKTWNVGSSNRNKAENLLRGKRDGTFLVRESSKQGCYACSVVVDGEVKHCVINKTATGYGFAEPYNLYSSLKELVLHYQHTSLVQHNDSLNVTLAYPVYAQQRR
Method: as §1

PI3K p110γ = target: T3, PI3K p110γ (Homo sapiens, UniProt P48736); experiment: PI3K kinase activity test (Adapta kinase assay), p110γ; format: biochemical
T3 construct: purchased Thermo Fisher Scientific Inc. (SelectScreen Services)
T3 sequence (P48736 whole entry): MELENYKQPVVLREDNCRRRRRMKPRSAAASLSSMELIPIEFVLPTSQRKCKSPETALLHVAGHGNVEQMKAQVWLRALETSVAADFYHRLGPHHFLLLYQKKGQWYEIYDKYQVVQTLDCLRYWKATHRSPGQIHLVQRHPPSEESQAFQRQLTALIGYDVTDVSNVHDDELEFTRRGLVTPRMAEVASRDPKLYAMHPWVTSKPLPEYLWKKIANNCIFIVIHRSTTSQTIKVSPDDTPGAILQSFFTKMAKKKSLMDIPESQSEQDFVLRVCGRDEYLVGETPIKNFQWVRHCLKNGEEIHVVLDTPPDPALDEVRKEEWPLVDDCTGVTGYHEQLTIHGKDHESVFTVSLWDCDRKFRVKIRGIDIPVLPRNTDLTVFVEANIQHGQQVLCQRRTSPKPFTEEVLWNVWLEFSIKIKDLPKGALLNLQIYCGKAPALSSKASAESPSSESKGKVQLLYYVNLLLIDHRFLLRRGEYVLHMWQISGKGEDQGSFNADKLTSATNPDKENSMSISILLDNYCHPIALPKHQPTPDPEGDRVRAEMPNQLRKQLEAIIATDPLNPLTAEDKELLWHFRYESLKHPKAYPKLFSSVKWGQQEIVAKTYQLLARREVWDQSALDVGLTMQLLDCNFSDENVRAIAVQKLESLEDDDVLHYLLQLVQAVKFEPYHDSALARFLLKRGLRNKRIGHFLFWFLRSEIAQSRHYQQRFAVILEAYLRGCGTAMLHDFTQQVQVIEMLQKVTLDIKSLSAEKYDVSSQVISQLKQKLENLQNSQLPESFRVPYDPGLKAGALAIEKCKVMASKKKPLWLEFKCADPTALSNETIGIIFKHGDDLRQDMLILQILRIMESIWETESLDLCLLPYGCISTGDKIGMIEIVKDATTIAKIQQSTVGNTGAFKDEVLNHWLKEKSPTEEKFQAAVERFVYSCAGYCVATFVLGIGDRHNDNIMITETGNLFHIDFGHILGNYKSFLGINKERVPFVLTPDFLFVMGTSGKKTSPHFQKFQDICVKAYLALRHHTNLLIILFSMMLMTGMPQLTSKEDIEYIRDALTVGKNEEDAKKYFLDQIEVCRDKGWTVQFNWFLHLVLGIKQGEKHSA
Method: as §1

PI3K p110δ = target: T4, PI3K p110δ (Homo sapiens, UniProt O00329); experiment: PI3K kinase activity test (Adapta kinase assay), p110δ; format: biochemical; conditions: for IC50: Adapta kinase assay; for ratio PI3Kα/PI3Kδ, as IC50 values / ratio PI3Kβ/PI3Kδ, as IC50 values / ratio of PI3Kγ/PI3Kδ: selectivity, ratio of IC50 values
T4 construct: purchased Thermo Fisher Scientific Inc. (SelectScreen Services)
T4 sequence (O00329 whole entry): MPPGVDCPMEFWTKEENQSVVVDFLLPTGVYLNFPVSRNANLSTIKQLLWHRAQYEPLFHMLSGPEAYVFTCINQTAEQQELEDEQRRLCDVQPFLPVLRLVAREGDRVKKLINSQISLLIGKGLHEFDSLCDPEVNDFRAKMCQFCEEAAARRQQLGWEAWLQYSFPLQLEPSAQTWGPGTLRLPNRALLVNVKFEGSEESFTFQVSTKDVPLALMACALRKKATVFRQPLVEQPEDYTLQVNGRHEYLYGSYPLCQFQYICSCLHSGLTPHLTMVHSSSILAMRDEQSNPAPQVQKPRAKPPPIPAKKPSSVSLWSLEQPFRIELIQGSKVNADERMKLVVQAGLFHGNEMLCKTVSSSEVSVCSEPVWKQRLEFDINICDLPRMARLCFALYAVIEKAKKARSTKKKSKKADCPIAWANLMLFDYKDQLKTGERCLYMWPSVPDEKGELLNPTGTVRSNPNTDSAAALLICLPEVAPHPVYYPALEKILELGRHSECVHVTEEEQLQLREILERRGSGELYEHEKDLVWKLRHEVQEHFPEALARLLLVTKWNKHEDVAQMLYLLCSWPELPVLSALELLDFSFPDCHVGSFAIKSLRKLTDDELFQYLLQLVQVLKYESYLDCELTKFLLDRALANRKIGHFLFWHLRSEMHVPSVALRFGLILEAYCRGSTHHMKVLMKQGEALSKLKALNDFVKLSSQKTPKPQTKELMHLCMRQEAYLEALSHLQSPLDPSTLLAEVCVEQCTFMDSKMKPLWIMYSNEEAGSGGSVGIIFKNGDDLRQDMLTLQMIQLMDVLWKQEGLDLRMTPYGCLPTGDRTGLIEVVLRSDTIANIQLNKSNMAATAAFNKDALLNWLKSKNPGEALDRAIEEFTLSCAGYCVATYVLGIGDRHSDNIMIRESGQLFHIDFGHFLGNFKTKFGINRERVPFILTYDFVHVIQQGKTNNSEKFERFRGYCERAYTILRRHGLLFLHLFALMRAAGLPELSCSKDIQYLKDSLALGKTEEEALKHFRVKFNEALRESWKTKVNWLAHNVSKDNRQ
T4 sequence (P27986 whole entry partner): as the sequence (P27986 whole entry partner) above
Method: as §1

Phospho-Akt (Ser473) = experiment: AKT (Ser473) phosphorylation in leukemia and lymphoma cell lines (immunoblotting); format: cell-based; conditions: 1 μM, 1 hour; SUDHL 5, SUDHL 10, CCRF-SB, MOLT4; FIG. 2
Text: Subsequently, cells were lysed and fractionated according to size, followed by immunoblotting with antibodies directed against Phospho-Akt (Ser473).

SUDHL5 (DLBCL) cells = experiment: Growth inhibition of lymphoma cells (CCK-8), SUDHL5; format: cell-based; conditions: Homo sapiens, read-out: LC50 SUDHL5 (DLBCL)
Method: (§2) Cell growth-inhibiting effects on the DLBCL-derived cells and the ALL-derived cells were evaluated by measuring the absorbance of cell counting kit-8 (CCK-8) dye. During the last 3 hours of the 48 hours, […] of a CCK-8 dye was added to each plate and then cultured.
(§3) All data are expressed as the mean (±SD) of three independent experiments.

MOLT4 (ALL) cells = experiment: Growth inhibition of leukemia cells (CCK-8), MOLT4; format: cell-based; conditions: Homo sapiens, read-out: LC50 MOLT4 (ALL)
Method: as §2, §3

SupB15 (ALL) cells = experiment: Growth inhibition of leukemia cells (CCK-8), SupB15; format: cell-based; conditions: Homo sapiens, read-out: LC50 SupB15 (ALL)
Method: as §2, §3

[1] = test system: diffuse large B-cell lymphoma (DLBCL) and acute lymphocytic leukemia (ALL) cells; experiment: Apoptosis of DLBCL and ALL cells by SDS-PAGE / immunoblotting (caspase 3, 9, PARP cleavage); format: cell-based; conditions: 50 μM, 36 hours; FIG. 4
Method: Immunoblotting analysis was performed using antibodies of these, and glyceraldehyde-3-phosphate dehydrogenase (GAPDH) was used as a loading control.

[2] = test system: diffuse large B-cell lymphoma (DLBCL) and acute lymphocytic leukemia (ALL) cells; experiment: Apoptosis of DLBCL and ALL cells by flow cytometry (Annexin V-FITC/PI); format: cell-based; conditions: 50 μM, 24 hours, FIG. 5
Method: The cells were washed with PBS, and then suspended in a binding buffer. 5 μl of an Annexin V-FITC stock solution (Becton Dickinson Science, Inc) and 5 μl of PI (20 μg/ml) were added thereto, followed by incubation at room temperature for 15 minutes with light-shielding, and then the target material was quantified on FACScan™ (Becton Dickinson) by flow cytometry.

[3] = test system: human umbilical vein endothelial cells (HUVECs); experiment: Angiogenesis inhibition, HUVEC tube formation; format: cell-based; conditions: HUVECs on basement membrane matrix, 18 hours; FIG. 7
Method: After 18 hours, tube formation was photographed using a Cytation™ 5 fluorescence microscope (BioTek), and the number of areas formed by branch points was counted using software (see FIG. 6).

[4] = test system: human umbilical vein endothelial cells (HUVECs); experiment: Number of viable HUVECs treated with compound; format: cell-based; conditions: FIG. 8
rats = experiment: Single dose toxicity test in rats; format: in vivo, rat; conditions: single oral dose, female rats, observed day 1 to day 2; approximate lethal dose
Method: The compound of Formula 7 and the compound of Formula 8 were orally administered to eight six-week-old female rats, to observe the single dose oral toxicity thereof and to obtain an approximate lethal dose. The dosage was set at 10 mL/kg, and the dosage for each rat was calculated based on body weight. Each compound was administered at doses of 100 mg/kg, 300 mg/kg, 900 mg/kg, and 1,500 mg/kg, and general symptoms were observed once a day from day 1 to day 2 after administration.

T1 sequence (P42336 whole entry): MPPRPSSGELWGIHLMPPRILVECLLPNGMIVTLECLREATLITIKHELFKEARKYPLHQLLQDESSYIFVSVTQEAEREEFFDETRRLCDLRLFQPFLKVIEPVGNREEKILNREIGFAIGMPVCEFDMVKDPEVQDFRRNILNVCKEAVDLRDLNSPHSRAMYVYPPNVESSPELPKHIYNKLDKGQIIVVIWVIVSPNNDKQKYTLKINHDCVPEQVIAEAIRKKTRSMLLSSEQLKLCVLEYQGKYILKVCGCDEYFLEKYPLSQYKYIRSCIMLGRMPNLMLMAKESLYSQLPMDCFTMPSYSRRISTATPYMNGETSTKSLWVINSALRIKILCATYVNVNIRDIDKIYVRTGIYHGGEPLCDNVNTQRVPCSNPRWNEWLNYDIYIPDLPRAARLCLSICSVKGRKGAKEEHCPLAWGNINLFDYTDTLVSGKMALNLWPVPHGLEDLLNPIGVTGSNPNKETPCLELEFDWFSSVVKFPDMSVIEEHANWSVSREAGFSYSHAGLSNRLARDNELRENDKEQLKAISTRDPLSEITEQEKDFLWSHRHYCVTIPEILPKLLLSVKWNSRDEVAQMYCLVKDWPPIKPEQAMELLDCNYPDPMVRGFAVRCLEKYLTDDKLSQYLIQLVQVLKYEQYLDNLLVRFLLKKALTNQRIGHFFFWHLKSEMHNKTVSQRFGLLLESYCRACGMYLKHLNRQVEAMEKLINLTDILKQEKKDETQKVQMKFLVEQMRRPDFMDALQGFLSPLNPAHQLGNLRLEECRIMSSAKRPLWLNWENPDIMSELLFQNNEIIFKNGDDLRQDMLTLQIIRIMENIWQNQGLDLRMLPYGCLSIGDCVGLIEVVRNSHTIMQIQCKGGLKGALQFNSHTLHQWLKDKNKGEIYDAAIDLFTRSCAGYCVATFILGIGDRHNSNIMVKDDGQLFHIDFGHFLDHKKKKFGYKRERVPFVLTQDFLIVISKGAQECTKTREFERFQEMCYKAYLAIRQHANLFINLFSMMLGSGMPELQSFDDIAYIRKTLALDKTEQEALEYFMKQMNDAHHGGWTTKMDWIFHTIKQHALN
T1 sequence (P27986 whole entry partner): as the sequence (P27986 whole entry partner) above

Work on `O=c1c2c(F)cccc2nc([C@@H](Nc2ncnc3nc[nH]c23)C2CC2)n1-c1ccccc1` [Formula 7, (S)-2-(((7H-purin-6-yl)amino)(cyclopropyl)methyl)-5-fluoro-3-phenylquinazolin-4(3H)-one] yielded an IC50 (PI3K p110α) of 206 nM, an IC50 (PI3K p110β) of 105 nM and an IC50 (PI3K p110γ) of 25.7 nM. For the same compound, the IC50 (PI3K p110δ) was 0.5 nM, the “ratio PI3Kα/PI3Kδ, as IC50 values” (PI3K p110δ) was 412 and the “ratio PI3Kβ/PI3Kδ, as IC50 values” (PI3K p110δ) was 210. For the same compound, the “ratio of PI3Kγ/PI3Kδ” value (PI3K p110δ) was 51, the “reduction of AKT (Ser473) phosphorylation” value (Phospho-Akt (Ser473)) was “induced the reduction of AKT phosphorylation” and the CC50 (SUDHL5 (DLBCL) cells; SU-DHL-5, 48 h) was 1100 nM. The CC50 (MOLT4 (ALL) cells; MOLT-4, 48 h) was 13700 nM, the CC50 (SupB15 (ALL) cells; SUP-B15, 48 h) was over 20000 nM and the “apoptosis compared with comparative drug idelalisib (SDS-PAGE)” value [1] was “apoptosis occurred more actively”. The “apoptosis induction (SDS-PAGE, immunoblotting)” value [1] was “induced apoptosis”, the “apoptosis induction compared with idelalisib (flow cytometry)” value [2] was “more effectively induced apoptosis than the comparative drug” and the “inhibition of angiogenesis (tube formation) compared with idelalisib” value [3] was “inhibited angiogenesis more than the comparative drug”. For the same compound, the “cytotoxicity to HUVECs (number of viable cells)” value [4] was “did not significantly affect the cytotoxicity” and the lethal dose (rats) was > 1,500 mg/kg.
In the case of `Cc1cccc2nc([C@@H](Nc3ncnc4nc[nH]c34)C3CC3)n(-c3ccccc3)c(=O)c12` [Formula 8, (S)-2-(((7H-purin-6-yl)amino)(cyclopropyl)methyl)-5-methyl-3-phenylquinazolin-4(3H)-one], the IC50 (PI3K p110α) is reported as 134 nM, the IC50 (PI3K p110β) is reported as 162 nM and the IC50 (PI3K p110γ) is reported as 8.6 nM. The IC50 (PI3K p110δ) was 0.09 nM, the “ratio PI3Kα/PI3Kδ, as IC50 values” (PI3K p110δ) was 1,488 and the “ratio PI3Kβ/PI3Kδ, as IC50 values” (PI3K p110δ) was 1,800. For the same compound, the “ratio of PI3Kγ/PI3Kδ” value (PI3K p110δ) was 95, the “reduction of AKT (Ser473) phosphorylation” value (Phospho-Akt (Ser473)) was “induced the reduction of AKT phosphorylation” and the CC50 (SUDHL5 (DLBCL) cells; SU-DHL-5, 48 h) was 900 nM. The CC50 (MOLT4 (ALL) cells; MOLT-4, 48 h) was 4900 nM, the CC50 (SupB15 (ALL) cells; SUP-B15, 48 h) was 16500 nM and the “apoptosis compared with comparative drug idelalisib (SDS-PAGE)” value [1] was “apoptosis occurred more actively”. The “apoptosis induction (SDS-PAGE, immunoblotting)” value [1] was “induced apoptosis”, the “apoptosis induction compared with idelalisib (flow cytometry)” value [2] was “more effectively induced apoptosis than the comparative drug” and the “inhibition of angiogenesis (tube formation) compared with idelalisib” value [3] was “inhibited angiogenesis more than the comparative drug”. For the same compound, the “cytotoxicity to HUVECs (number of viable cells)” value [4] was “did not significantly affect the cytotoxicity” and the lethal dose (rats) was 1,500 mg/kg.
Work on `CC[C@H](Nc1ncnc2[nH]cnc12)c1nc2cccc(F)c2c(=O)n1-c1ccccc1` [Idelalisib, idelalisib, reference compound] yielded a CC50 (SUDHL5 (DLBCL) cells; SU-DHL-5, 48 hours, CCK-8) of 3000 nM, a CC50 (MOLT4 (ALL) cells; MOLT-4, 48 hours, CCK-8) of over 20000 nM and a CC50 (SupB15 (ALL) cells; SUP-B15, 48 hours, CCK-8) of over 20000 nM.
